# In US20160047819A1, “METHOD FOR DIAGNOSING VAGINAL INFECTIONS” (priority 2013, published 2016):
# Test system: vaginal proteome (human proteins in vaginal fluid)
# Assay: MS/MS proteomic analysis of vaginal fluid pools, BV-affected women before (BV) and after rifaximin/placebo treatment: human proteins
# Type: in vivo
# Settings: for Ratio: BV/R, Alpha-1-acid glycoprotein 1 / Ratio: BV/R, Alpha-1-acid glycoprotein 2 / Ratio: BV/R, Calcium-activated chloride channel regulator 4 / Ratio: BV/R, Catalase / Ratio: BV/R, Desmocollin-2 / Ratio: BV/R, Galectin-3-binding protein / Ratio: BV/R, Hemopexin / Ratio: BV/R, Ig mu chain C region / Ratio: BV/R, Immunoglobulin J chain / Ratio: BV/R, Keratin, type I cytoskeletal 10 / Ratio: BV/R, Keratin, type II cytoskeletal 1 / Ratio: BV/R, Keratin, type II cytoskeletal 2 epidermal / Ratio: BV/R, Keratin, type II cytoskeletal 5 / Ratio: BV/R, Lymphocyte-specific protein 1 / Ratio: BV/R, Myeloblastin / Ratio: BV/R, Neutrophil gelatinase-associated lipocalin / Ratio: BV/R, Perilipin-3 / Ratio: BV/R, Periplakin / Ratio: BV/R, Protein S100-A7 / Ratio: BV/R, Protein S100-A9 / Ratio: BV/R, Small proline-rich protein 3 / Ratio: BV/R, Superoxide dismutase [Cu—Zn] / Ratio: BV/R, Vitamin D-binding protein: vaginal fluid
# Procedure: Proteomic analysis was performed on 9 pools of vaginal isolates, grouped according to the status of the BV infection: • H pool (from 41 healthy women); BV pool (from 39 BV-affected women); • A-R pool (from 2 women who were in remission after rifaximin treatment-group A); • A-N pool (from 8 women who were not in remission after rifaximin treatment-group A); • B-R pool (from 5 women who were in remission after rifaximin treatment-group B); • B-N pool (from 5 women who were not in remission after rifaximin treatment-group B); • C-R pool (from 4 women who were in remission after rifaximin treatment-group C); • C-N (from 5 women who were not in remission after rifaximin treatment-group C); • D-N (from 10 women who were not in remission after placebo treatment-group D). Scheme of the vaginal fluids collected for testing the diagnostic method is represented in FIG. 1.
# In these figures are reported the peptides in the fractionated pools of healthy women, women affected by BV and peptides of women treated with rifaximin. The treatment with rifaximin was at dosage of 100 mg/day for 5 days; (remission, A-R; no remission, A-N), 25 mg/5 days (remission, B-R; no remission, B-N), 100 mg/2 days (remission, C-R; no remission, C-N), and placebo for 5 days (D-N). Two types of comparisons were carried out: (i) between fractionated pools of proteins from vaginal fluid of healthy women (HF) versus fractionated pool of proteins from vaginal fluid of women affected by bacterial vaginosis (BVF); (ii) between whole pools of proteins from vaginal fluid of women affected by BV treated by administering different doses of rifaximin or placebo before (BV) and after (A-R, A-N, B-R, B-N, C-R, C-N, D-N) treatment. Fractioned pools of proteins are obtained, e.g., by separating the proteins by separation on membrane filtration with different membrane porosity, prior to MS/MS analysis.
# Nine volumes of acetone: HCl (10:1) were added to the supernatant of the vaginal rinsing and proteins were precipitated by centrifuging at 12000 g for 10 min. The protein pellet was dissolved in 1 mL of 70% ethanol and the sample was spun at 12000 g for 10 min. One mL of acetone was added and the proteins were further precipitated by centrifugation at 12000 g for 5 min. After removing supernatant, pellet was dried by SpeedVac concentrator (Thermo Savant ISS110, Thermo Fisher Scientific, Waltham, Mass.) and then stored at −20° C.
# Protein extract was quantified using the 2-D Quant Kit (GE Healthcare, Uppsala, Sweden) according to the manufacturer's instructions.
# Patients who were diagnosed for BV at the study visit V1 were included in a multicentre, double-blind, randomised, placebo-controlled study (EudraCT: 2009-011826-32), that was performed to compare the efficacy of different doses of rifaximin vaginal tablets versus placebo for the treatment of BV. The patients underwent a randomisation visit and were distributed into 4 treatment groups: group A received 100 mg rifaximin vaginal tablet once daily for 5 days (n=10), group B received 25 mg rifaximin vaginal tablet once daily for 5 days (n=10), group C received 100 mg rifaximin vaginal tablet once daily for the first 2 days and placebo vaginal tablet for the remaining 3 days (n=9), group D received placebo vaginal tablet once daily for 5 days (n=10). Study medication was administered intra-vaginally at bedtime. After 7 to 10 days from the end of the therapy a follow-up visit (V3) was performed. Remission was evaluated at V3 according to Amsel's criteria (<3) and Gram stain Nugent score (≦3) (Table 1).
# Standardized vaginal rinsings with 2 mL of saline were collected for analysis at V1 and V3 by flushing and re-aspirating the fluid through a 22 Gauge needle in the left, central and right upper vaginal vaults. The vaginal rinsings were subsequently stored at −80° C. until use.
# MS/MS analysis was carried out for H and BV pools and for the whole BV, A-R, A-N, B-R, B-N, C-R, C-N and D-N pools containing 50 μg of protein each. […]
# [1] = A-R pool (100 mg × 5 days, in remission) vs BV pool before treatment
# [2] = B-R pool (25 mg × 5 days, in remission) vs BV pool before treatment
# [3] = B-R pool (25 mg × 5 days, remission) vs BV pool
# [4] = B-R pool vs BV pool, differentially expressed only in B-R
# [5] = C-R pool (100 mg × 2 days, in remission) vs BV pool before treatment
smiles,measurement,setting,value
CO[C@H]1/C=C/O[C@@]2(C)Oc3c(C)c(O)c4c(O)c(c5c(nc6cc(C)ccn65)c4c3C2=O)NC(=O)/C(C)=C\C=C\[C@H](C)[C@H](O)[C@@H](C)[C@@H](O)[C@@H](C)[C@H](OC(C)=O)[C@@H]1C [rifaximin],"Ratio: BV/R, Alpha-1-acid glycoprotein 1",[1],2.3
same,"Ratio: BV/R, Alpha-1-acid glycoprotein 2",[1],1.5
same,"Ratio: BV/R, Calcium-activated chloride channel regulator 4",[1],2.9
same,"Ratio: BV/R, Catalase",[1],0.0
same,"Ratio: BV/R, Desmocollin-2",[1],−1.5
same,"Ratio: BV/R, Galectin-3-binding protein",[1],3.6
same,"Ratio: BV/R, Hemopexin",[1],1.9
same,"Ratio: BV/R, Ig mu chain C region",[1],1.8
same,"Ratio: BV/R, Immunoglobulin J chain",[1],−1.5
same,"Ratio: BV/R, Keratin, type I cytoskeletal 10",[1],−2.8
same,"Ratio: BV/R, Keratin, type II cytoskeletal 1",[1],−3.9
same,"Ratio: BV/R, Keratin, type II cytoskeletal 2 epidermal",[1],−4.3
same,"Ratio: BV/R, Keratin, type II cytoskeletal 5",[1],−16.3
same,"Ratio: BV/R, Lymphocyte-specific protein 1",[1],−2.8
same,"Ratio: BV/R, Myeloblastin",[1],0.0
same,"Ratio: BV/R, Neutrophil gelatinase-associated lipocalin",[1],0.0
same,"Ratio: BV/R, Perilipin-3",[1],−1.7
same,"Ratio: BV/R, Periplakin",[1],−3.6
same,"Ratio: BV/R, Protein S100-A7",[1],19.2
same,"Ratio: BV/R, Protein S100-A9",[1],4.2
same,"Ratio: BV/R, Small proline-rich protein 3",[1],−6.6
same,"Ratio: BV/R, Superoxide dismutase [Cu—Zn]",[1],1.8
same,"Ratio: BV/R, Vitamin D-binding protein",[1],1.7
same,number of differentially expressed human proteins,B-N pool vs BV pool,155
same,"Ratio: BV/R, Alpha-1-acid glycoprotein 1",[2],7.8
same,"Ratio: BV/R, Alpha-1-acid glycoprotein 2",[2],19.5
same,"Ratio: BV/R, Calcium-activated chloride channel regulator 4",[2],0.0
same,"Ratio: BV/R, Catalase",[2],4.0
same,"Ratio: BV/R, Desmocollin-2",[2],−2.0
same,"Ratio: BV/R, Galectin-3-binding protein",[2],2.7
same,"Ratio: BV/R, Hemopexin",[2],9.0
same,"Ratio: BV/R, Ig mu chain C region",[2],8.1
same,"Ratio: BV/R, Immunoglobulin J chain",[2],−4.1
same,"Ratio: BV/R, Keratin, type I cytoskeletal 10",[2],−3.5
same,"Ratio: BV/R, Keratin, type II cytoskeletal 1",[2],−6.2
same,"Ratio: BV/R, Keratin, type II cytoskeletal 2 epidermal",[2],−7.1
same,"Ratio: BV/R, Keratin, type II cytoskeletal 5",[2],−12.7
same,"Ratio: BV/R, Lymphocyte-specific protein 1",[2],−3.2
same,"Ratio: BV/R, Myeloblastin",[2],3.1
same,"Ratio: BV/R, Neutrophil gelatinase-associated lipocalin",[2],−1.5
same,"Ratio: BV/R, Perilipin-3",[2],−2.9
same,"Ratio: BV/R, Periplakin",[2],−3.4
same,"Ratio: BV/R, Protein S100-A7",[2],5.7
same,"Ratio: BV/R, Protein S100-A9",[2],2.6
same,"Ratio: BV/R, Small proline-rich protein 3",[2],−6.6
same,"Ratio: BV/R, Superoxide dismutase [Cu—Zn]",[2],1.5
same,"Ratio: BV/R, Vitamin D-binding protein",[2],17.8
same,expression change of Kininogen-1,[3],−88.6 ratio
same,expression change of Prostate stem cell antigen,[3],63.8 ratio
same,expression change of Stanniocalcin-1,[3],113.1 ratio
same,number of differentially expressed human proteins,B-R pool vs BV pool,214
same,expression change of Ig heavy chain V-III region BUT,[4],−1.6 ratio
same,expression change of Ig heavy chain V-III region VH26,[4],−1.5 ratio
same,expression change of Kallikrein-13,[4],1.5 ratio
same,expression change of Neutrophil gelatinase-associated lipocalin,[4],1.5 ratio
same,expression change of Zinc-alpha-2-glycoprotein,[4],−9.4 ratio
same,"Ratio: BV/R, Alpha-1-acid glycoprotein 1",[5],0.0
same,"Ratio: BV/R, Alpha-1-acid glycoprotein 2",[5],−1.9
same,"Ratio: BV/R, Calcium-activated chloride channel regulator 4",[5],1.8
same,"Ratio: BV/R, Catalase",[5],2.3
same,"Ratio: BV/R, Desmocollin-2",[5],0.0
same,"Ratio: BV/R, Galectin-3-binding protein",[5],0.0
same,"Ratio: BV/R, Hemopexin",[5],1.7
same,"Ratio: BV/R, Ig mu chain C region",[5],0.0
same,"Ratio: BV/R, Immunoglobulin J chain",[5],−2.2
same,"Ratio: BV/R, Keratin, type I cytoskeletal 10",[5],0.0
same,"Ratio: BV/R, Keratin, type II cytoskeletal 1",[5],−2.3
same,"Ratio: BV/R, Keratin, type II cytoskeletal 2 epidermal",[5],0.0
same,"Ratio: BV/R, Keratin, type II cytoskeletal 5",[5],−2.5
same,"Ratio: BV/R, Lymphocyte-specific protein 1",[5],0.0
same,"Ratio: BV/R, Myeloblastin",[5],4.0
same,"Ratio: BV/R, Neutrophil gelatinase-associated lipocalin",[5],0.0
same,"Ratio: BV/R, Perilipin-3",[5],−2.3
same,"Ratio: BV/R, Periplakin",[5],−2.0
same,"Ratio: BV/R, Protein S100-A7",[5],2.5
same,"Ratio: BV/R, Protein S100-A9",[5],0.0
same,"Ratio: BV/R, Small proline-rich protein 3",[5],−4.4
same,"Ratio: BV/R, Superoxide dismutase [Cu—Zn]",[5],0.0
